Results on 10 molecules are retold here after patent US20240002445A1, “TYROSYL-LOCK PEPTIDES” (The United States of America,as represented by the …, priority 2020, published 2024).

The target of data set [1] is full-length recombinant human Tyrosyl-DNA phosphodiesterase 1 (TDP1) (human) (UniProt Q9NUW8). Put plainly: cell-based or functional assay.
The subject of data set [2] is T1, recifin A (native, isolated from the marine sponge Axinella sp.).
T1 sequence: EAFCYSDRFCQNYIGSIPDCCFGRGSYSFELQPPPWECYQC

A further data set deals with T2, FL-TDP1 (Homo sapiens, UniProt Q9NUW8).
T2 construct: either full-length TDP1 or Δ1-147TDP1 was diluted to 1×
T2 sequence (Q9NUW8 whole entry): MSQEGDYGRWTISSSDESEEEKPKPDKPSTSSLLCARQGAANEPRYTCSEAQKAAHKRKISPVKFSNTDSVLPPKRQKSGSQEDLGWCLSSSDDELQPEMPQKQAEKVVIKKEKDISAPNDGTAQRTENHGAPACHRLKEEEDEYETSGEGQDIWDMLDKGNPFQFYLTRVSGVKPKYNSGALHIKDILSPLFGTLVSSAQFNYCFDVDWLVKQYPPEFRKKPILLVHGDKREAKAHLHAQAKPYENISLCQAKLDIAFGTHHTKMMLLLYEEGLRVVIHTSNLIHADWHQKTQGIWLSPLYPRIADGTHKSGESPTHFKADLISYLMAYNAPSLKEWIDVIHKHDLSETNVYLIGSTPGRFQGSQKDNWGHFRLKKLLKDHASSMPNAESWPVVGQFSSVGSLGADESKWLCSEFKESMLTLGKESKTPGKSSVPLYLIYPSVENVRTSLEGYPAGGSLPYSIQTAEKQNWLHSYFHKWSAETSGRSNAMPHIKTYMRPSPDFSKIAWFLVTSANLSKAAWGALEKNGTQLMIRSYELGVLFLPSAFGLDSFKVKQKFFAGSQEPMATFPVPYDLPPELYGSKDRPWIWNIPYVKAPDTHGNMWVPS
Briefly: FL-TDP1 FRET assay without TCEP (recifin A and analogues). The settings on record: for TDP1 inhibitory activity (FRET assay): TCEP omitted; for IC50: IC50 μM (FL-TDP1 inhibitory activity), 1 nM FL-TDP1, 0.25 μM substrate, T=15 min, 1XPBS pH 7.4, 80 mM KCl, -TCEP, high-test concentration 20 μM. The format is biochemical. Here is the method: For these FRET assays, TCEP was omitted from the reaction buffer. Peptides were evaluated for FL-TDP1 inhibitory activity using an 8-pt, 10^0.5 dilution series at a high-test concentration of 20 μM. RXN conditions: 1 nM FL-TDP1, 0.25 μM substrate, T=15 min.; rxn buffer (1XPBS pH 7.4, 80 mM KCl) (-TCEP). See FIGS. 21A and 21B and FIG. 22.

In data set [3] the target is N-terminal truncated TDP1 (Δ147TDP1) (UniProt Q9NUW8). Briefly: cell-based or functional assay.
N-terminal truncated TDP1 (Δ147TDP1), sequence (Q9NUW8 148-608, stated change not applied): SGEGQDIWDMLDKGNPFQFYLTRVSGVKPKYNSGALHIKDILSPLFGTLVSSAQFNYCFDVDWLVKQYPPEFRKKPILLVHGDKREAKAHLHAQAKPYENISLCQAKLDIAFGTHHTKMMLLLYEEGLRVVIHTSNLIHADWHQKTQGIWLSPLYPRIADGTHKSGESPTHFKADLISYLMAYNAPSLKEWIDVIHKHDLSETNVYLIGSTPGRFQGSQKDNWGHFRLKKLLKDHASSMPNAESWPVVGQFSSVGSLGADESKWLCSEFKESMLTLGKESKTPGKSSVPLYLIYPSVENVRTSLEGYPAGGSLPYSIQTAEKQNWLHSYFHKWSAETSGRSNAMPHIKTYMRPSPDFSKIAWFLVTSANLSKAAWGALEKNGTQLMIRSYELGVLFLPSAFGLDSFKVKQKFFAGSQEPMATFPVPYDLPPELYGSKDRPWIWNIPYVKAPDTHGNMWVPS
The nature of data set [4]: Stability of recifin A to handling, solvents and RP-HPLC.
Data set [5] deals with T3, full-length TDP1 (Homo sapiens, UniProt Q9NUW8). Put plainly: FRET-based TDP1 enzymatic activity inhibition assay, full-length TDP1 (1x TDP1 buffer with TCEP). The settings on record: for effect on Vmax of full-length TDP1 / effect on Km of full-length TDP1: steady-state analysis; for effect on Km of full-length TDP1: sub-micromolar concentrations of recifin A. Set-up: either full-length TDP1 or Δ1-147TDP1 was diluted to 1×. The format is biochemical. As to the method:
(§1) FRET-based TDP1 enzymatic activity inhibition assays were carried out as previously described (Bermingham, et al., SLAS Discov., 2472555217717200 (2017)). Briefly, for Michaelis-Menten analysis, an eight-point FRET substrate concentration response was used (from 0.01-3 μM substrate) in the presence of 0, 0.2, 0.5, 1, and 2 μM recifin A. Quadruplicate reactions were setup in which a 1.25× concentration of either full-length TDP1 or Δ1-147TDP1 was diluted to 1× by the addition of a […] solution of substrate and recifin A to reach a final concentration of 0.5 nM TDP1 (full length or truncated) and the indicated substrate and recifin A concentration in 1× Phosphate Buffered Saline (PBS) pH 7.4, 80 mM potassium chloride, 1 mM TCEP, referred to as “1× TDP1 buffer.” After dilution these reactions were transferred to a black small volume 384-well plate (Greiner Bio-One, Monroe, NC). Fluorescence measurements (excitation: 520 nm, emission: 550 nm) were taken at 30 sec intervals for 1 h using a i3x SpectraMax plate reader (Molecular Devices, Sunnyvale, CA). Reaction progression curves for each condition were examined for linearity over the time course and the reaction rate for each condition was determined by linear regression using GraphPad Prism software (version 8.3.1, San Diego, CA). Reaction rates were replotted in terms of substrate concentration, and kinetic parameters for each recifin A treatment concentration were calculated by non-linear regression (GraphPad Prism) according to the following equation: […]
(§2) For IC50 determinations, a 12-point concentration response curve was prepared over a recifin A concentration range of 0-15 μM. This was accomplished by diluting a 5X stock solution of recifin A and TDP1 FRET substrate into a stock solution of 1.25× TDP1 buffer containing 0.625 nM full-length TDP1 or Δ147TDP1, bringing the final concentration to 1× TDP1 buffer, 0.5 nM enzyme (or a no enzyme control), 1 μM FRET substrate, and 0-15 μM recifin A. Reactions were setup in triplicate using the same plates and plate reader described above for the kinetic measurements. Reaction wells were read at 0 (T0) and 15 (T15) min after initiation. The T15 data was background corrected by subtracting T0 fluorescence measurements. Corrected data was normalized to a control with no enzyme present (0% activity) and a vehicle control (100% activity). Recifin A concentrations were converted to logio-values and normalized data were fitted to the following equation by nonlinear regression (least squares fit with a variable slope) and an IC50 value was calculated using GraphPad Prism software: […]

Another data set deals with carboxypeptidase Y (Saccharomyces cerevisiae, UniProt P00729). The settings on record: native form, 1:18 enzyme to target protein by mass, 20 minutes at room temperature.
carboxypeptidase Y, sequence (P00729 112-532, species assumed): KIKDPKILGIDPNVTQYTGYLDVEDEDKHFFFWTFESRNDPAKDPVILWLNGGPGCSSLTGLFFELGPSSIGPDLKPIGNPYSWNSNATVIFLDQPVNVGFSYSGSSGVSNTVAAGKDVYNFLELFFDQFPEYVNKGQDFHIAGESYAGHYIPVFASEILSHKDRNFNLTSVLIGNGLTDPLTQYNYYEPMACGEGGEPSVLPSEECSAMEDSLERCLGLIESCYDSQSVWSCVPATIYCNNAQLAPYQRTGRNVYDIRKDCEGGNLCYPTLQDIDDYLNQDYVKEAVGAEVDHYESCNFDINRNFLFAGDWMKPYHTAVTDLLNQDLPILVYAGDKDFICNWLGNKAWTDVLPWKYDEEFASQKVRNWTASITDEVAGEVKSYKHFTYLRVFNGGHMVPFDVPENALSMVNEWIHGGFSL
The target in another data set is chymotrypsin (Bos taurus, UniProt P00766). The conditions noted are these: native form, 1:20 enzyme to target protein by mass, overnight at room temperature.
Data set [6] addresses T3, full-length TDP1. Put plainly: biochemical.
Description: (§3) The reactions were carried out in a final volume of 10 μL in 1×LMP 1 reaction buffer (50 mM Tris-HCl, pH 7.5, 80 mM KCl, 2 mM EDTA, 1 mM DTT, 40 μg/mL BSA, 0.01% TWEEN 20) at room temperature for 15 minutes and terminated by adding 10 μ−L of 2×stop buffer (99.5% formamide, 10 mM EDTA, 0.01% methylene blue, 0.01% bromophenol blue).
In a further data set the target is T4, Δ147TDP1 (Homo sapiens, UniProt Q9NUW8).
T4 construct: a truncated catalytic domain of TDP1 lacking the N-terminal regulatory domain (Δ1-147)
T4 sequence (Q9NUW8 148-608, stated change not applied): as the sequence (Q9NUW8 148-608, stated change not applied) above
Put plainly: FRET-based TDP1 enzymatic activity inhibition assay, N-terminally truncated TDP1. The format is biochemical. Here is the method: as §1, §2

A further data set deals with TDP1 (Homo sapiens, UniProt Q9NUW8). Put plainly: High-throughput biochemical assay for inhibition of TDP1 enzymatic activity (bioassay-guided fractionation). The conditions noted are these: comparison among peptide constituents of fractions A-D of Axinella sp. aqueous extract. As to the method:
The sponge Axinella sp., (Voucher #ID 0CDN7410, NSC #C020686) was harvested at a depth of 40 m at the Thunderbolt reef, south-southwest of Cape Recife Nature Reserve, Port Elizabeth, South Africa. A voucher specimen for this collection is maintained at the Smithsonian Institution (Suitland, MD). Aqueous extracts of Axinella sp. were provided by the Natural Products Branch of the National Cancer Institute and were prepared as previously reported (McCloud, Molecules, 15(7): 4526-63 (2010)). The dried extract was reconstituted in water at a concentration of 10 mg/mL and then subjected to vacuum-assisted chromatography using Bakerbond C4 wide-pore media (Mallinckrodt Baker, Inc., Phillipsburg, NJ). Compounds were eluted using a stepwise methanol gradient of five column volumes (CV) each of 100% water, 40% methanol, 60% methanol and 100% methanol, and the resulting fractions were evaporated under vacuum and then lyophilized to dryness. A high-throughput biochemical assay for inhibition of TDP1 enzymatic activity was utilized to track fraction activity (Bermingham, et al., SLAS Discov., 2472555217717200 (2017)). […]

Data set [7] addresses pyroglutamate aminopeptidase (Pyrococcus furiosus, UniProt O73944).
For data set [8], the target named is T5, human TDP1 complemented DT40 knockout whole cell extracts (hTDP1 WCE) (Homo sapiens, UniProt Q9NUW8).
T5 construct: expressed in transfected cells; host or cells: TDP1-/- DT40 (chicken B-lymphocyte) cells complemented with human TDP1; whole cell extract
T5 sequence (Q9NUW8 whole entry): as the sequence (Q9NUW8 whole entry) above
Briefly: TDP1 inhibition assay with radiolabeled oligonucleotide in whole cell extract. Type of data set: biochemical. The conditions noted are these: 2 μg/mL hTDP1 WCE from TDP1-/- DT40 cells complemented with human TDP1.
Description: as §3

A further data set concerns the target trypsin (Bos taurus, UniProt P00760). The settings on record: native form, 1:20 enzyme to target protein by mass, overnight at 37° C.
Where [9] appears, read: full-length TDP1, Michaelis-Menten analysis, 0-2 μM recifin A.

pIC50: −log10 of the molar value. Entries after “also recorded” stand apart in the source; their conditions may differ. Bridge positions count the residues as written; N and C are the ends. Square brackets hold non-standard residues; d marks the D form. Ends that are not written are not given here. Peptide text beside a SMILES is read from it. pGlu = O=C1CC[C@@H](C(=O)O)N1

T3 sequence (Q9NUW8 whole entry): as above
full-length recombinant human Tyrosyl-DNA phosphodiesterase 1 (TDP1) (human), sequence (Q9NUW8 whole entry): as above
pyroglutamate aminopeptidase, sequence (O73944 whole entry): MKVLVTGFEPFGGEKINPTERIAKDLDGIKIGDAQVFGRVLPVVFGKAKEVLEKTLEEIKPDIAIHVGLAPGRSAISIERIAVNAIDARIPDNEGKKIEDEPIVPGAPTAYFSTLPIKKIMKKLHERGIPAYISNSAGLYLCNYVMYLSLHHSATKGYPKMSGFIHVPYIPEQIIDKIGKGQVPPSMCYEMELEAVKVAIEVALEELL
TDP1, sequence (Q9NUW8 whole entry): as the sequence (Q9NUW8 whole entry) above
trypsin, sequence (P00760 24-246): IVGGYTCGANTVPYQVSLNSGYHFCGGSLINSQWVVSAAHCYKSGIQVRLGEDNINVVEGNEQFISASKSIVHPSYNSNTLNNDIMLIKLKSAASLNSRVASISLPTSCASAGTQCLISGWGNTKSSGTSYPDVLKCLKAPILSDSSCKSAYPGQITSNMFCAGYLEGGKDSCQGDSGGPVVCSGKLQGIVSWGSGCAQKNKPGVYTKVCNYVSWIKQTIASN

Turning to synthetic recifin A (peptide), the IC50 µM, FL-TDP1 FRET inhibition assay without TCEP in data set [1] worked out at 0.5 µM.

As to “full-length recombinant human Tyrosyl-DNA phosphodiesterase 1 (TDP1)”, in [2], the “effect on the observed Vmax, FRET steady-state kinetics” value is given as “approximately 1.6-fold higher” and the “recifin A-dependent increase in the Km for the substrate, FRET steady-state kinetics” value is given as “approximately 6-fold higher”.

In the case of `CC[C@H](C)[C@@H]1NC(=O)[C@H](Cc2ccc(O)cc2)NC(=O)[C@H](CC(N)=O)NC(=O)[C@H](CCC(N)=O)NC(=O)[C@@H]2CSSC[C@@H]3NC(=O)[C@H](CCC(=O)O)NC(=O)[C@H](Cc4c[nH]c5ccccc45)NC(=O)[C@@H]4CCCN4C(=O)[C@@H]4CCCN4C(=O)[C@@H]4CCCN4C(=O)[C@H](CCC(N)=O)NC(=O)[C@H](CC(C)C)NC(=O)[C@H](CCC(=O)O)NC(=O)[C@H](Cc4ccccc4)NC(=O)[C@H](CO)NC(=O)[C@H](Cc4ccc(O)cc4)NC(=O)[C@H](CO)NC(=O)CNC(=O)[C@H](CCCNC(=N)N)NC(=O)CNC(=O)[C@H](Cc4ccccc4)NC(=O)[C@H](CSSC[C@@H](C(=O)O)NC(=O)[C@H](CCC(N)=O)NC(=O)[C@H](Cc4ccc(O)cc4)NC3=O)NC(=O)[C@H](CSSC[C@H](NC(=O)[C@H](Cc3ccccc3)NC(=O)[C@H](C)N)C(=O)N[C@@H](Cc3ccc(O)cc3)C(=O)N[C@@H](CO)C(=O)N[C@@H](CC(=O)O)C(=O)N[C@@H](CCCNC(=N)N)C(=O)N[C@@H](Cc3ccccc3)C(=O)N2)NC(=O)[C@H](CC(=O)O)NC(=O)[C@@H]2CCCN2C(=O)[C@H]([C@@H](C)CC)NC(=O)[C@H](CO)NC(=O)CNC1=O` [Truncated, Recifin (3-42)] (H-AFCYSDRFCQNYIGSIPDCCFGRGSYSFELQPPPWECYQC-OH; disulfide 3-19, 9-37, 20-40), on FL-TDP1, the “TDP1 inhibitory activity (FRET assay)” value is listed as “no TDP1 inhibitory activity” and the IC50 was more than 10 µM.

In the case of Recifin (3-42) (peptide), in data set [1], the IC50 µM, FL-TDP1 FRET inhibition assay without TCEP is more than 10 µM.

Consider N-terminal truncated TDP1 (Δ147TDP1), for which the “Km and Vmax of the Δ147TDP1 FRET assay” value in data set [2] was “recifin A had overlapping 95% confidence intervals for both Km and Vmax with the untreated controls, indicating that recifin A does not affect the enzymatic activity of truncated TDP1”.

In turn, “recifin A (native, isolated from the marine sponge Axinella sp.) (peptide)” displayed a maximal inhibition of enzymatic activity, FRET assay in data set [3] of 20%. In addition, in [1], the IC50 µM, FL-TDP1 FRET inhibition assay without TCEP stood at 1.63 µM; the IC50, inhibition of TDP1 cleavage of a 5'-radiolabeled oligonucleotide DNA substrate containing a 3'-phosphotyrosyl residue (gel assay) is 2.4 µM; the apparent IC50, FRET-based TDP1 enzymatic activity inhibition assay amounted to 0.19 µM.

Consider “[pGlu]EAFCYSDRFCQNYIGSIPDCCFGRGSYSFELQPPPWECYQC (disulfide 5-21, 11-39, 22-42) [recifin A]”, for which, in [4] (DTP extract preparation, drying under nitrogen gas at room temperature, freezing at -20° C., -80° C. and on dry ice, lyophilization, freezing and thawing), the activity after processing entry is recorded as “still active”. The “stability during RP-HPLC procedures” value in [4] (room temperature and 40° C., with and without 0.05% v/v TFA (pH approx. 2)) is recorded as “stable”. Besides, the “stability in solvents and buffers” value in [4] (water, PBS pH 7.4, Tris HCl pH 8.0, methanol, acetonitrile, DMSO) was “stable”. At full-length TDP1 [5], the pIC50 was 6.72, the “effect on Vmax of full-length TDP1” value is listed as “modest increase” and the “effect on Km of full-length TDP1” value was “increased”. Besides, at full-length TDP1 [5] (setting [9]), the “increase in Km for the substrate” value is “approximately 6 fold” and the “increase in observed Vmax” value was “approximately 1.6 fold”. On full-length TDP1 [5] (listed as Recifin A), the “effect on Km of full-length TDP1” value is given as “in-creased” and the “effect on Vmax of full-length TDP1” value is reported as “in-creased”. Further, the “digestion with carboxypeptidase Y” value on carboxypeptidase Y is on record as “resistant”. In addition, on chymotrypsin, the digestion with chymotrypsin entry is reported as “resistant”. The same molecule gave a pIC50 against full-length TDP1 [6] of 5.62. For the same molecule, on Δ147TDP1 (FRET assay, TDP1 lacking N-terminal regulatory domain (Δ1-147)), the “effect on enzymatic activity of truncated TDP1 (Δ147TDP1)” value is recorded as “does not affect the enzymatic activity; also recorded: not affecting the activity”. For the same molecule, the inhibition at 1.5 µM on Δ147TDP1 (at the highest concentration (1500 nM), read-out: maximal inhibition of Δ147TDP1) was approximately 20%. On Δ147TDP1 (Δ147TDP1 FRET assay), the “effect on Km of Δ147TDP1” value is given as “did not affect” and the “effect on Vmax of Δ147TDP1” value is reported as “did not affect”. Also, at TDP1, the “TDP1 inhibitory activity of Axinella sp. peptides/fractions” value is on record as “most active”. In [7] (native form, 2 microgram peptide to 0.2 milliunits enzyme, PBS pH 7.4, 24 hour at 37 C), the “digestion with pyroglutamate aminopeptidase” value is on record as “resistant”. Also, the “digestion with pyroglutamate aminopeptidase: N-terminal pyroglutamate residue” value in [7] (same conditions in phosphate buffer containing 10 mM DTT) is “fully removed”. At FL-TDP1, this molecule yielded an IC50 of 1.63 µM. In data set [8], the “inhibition of TDP1 processing of the radiolabeled oligonucleotide in whole-cell extract” value is recorded as “retained the ability to inhibit”. In addition, the digestion with trypsin result at trypsin is reported as “resistant”.

Take “[pGlu]EAFCYSDRFCQNYIGSIPDCCFGRGSYSFELQPPPWECYQC-OH (disulfide 5-21, 11-39, 22-42) [Synthetic, Recifin]”: on FL-TDP1, the “TDP1 inhibitory activity (FRET assay)” value is “have TDP1 inhibitory activity” and the IC50 stood at 0.5 µM.

On to [Pro1] recifin (peptide), for which the IC50 µM, FL-TDP1 FRET inhibition assay without TCEP in [1] was determined as 0.69 µM.

As to [Ala10] recifin (peptide), in data set [1], the IC50 µM, FL-TDP1 FRET inhibition assay without TCEP was more than 10 µM.
